According to US11684594B2, “Antifungal prophylaxis for cornea” (PRESIDENT AND FELLOWS OF HARVARD COLLEGE, priority 2020, dated 2023):
Like-named read-outs stand apart in the source and are kept apart here.

Legend:
[1] = tested on: Candida, Aspergillus, and Fusarium; details: 0.01% hypochlorous acid (Avenova), cited from earlier work
[2] = clinical or long-term topical ocular use, cited from earlier work
[3] = tested on: Candida albicans (ATCC 24433), Fusarium solani (ATCC MYA-3636), and Aspergillus fumigatus (ATCC MYA-3626); assay: In vitro antifungal testing, statements not resolved by species; assay type: cell-based
Procedure: Several commonly used antibiotics were tested in vitro against Candida albicans (ATCC 24433), Fusarium solani (ATCC MYA-3636), and Aspergillus fumigatus (ATCC MYA-3626). Time kill activity and minimum inhibitory concentrations (MIC) were determined. Also the antiseptics benzalkonium chloride (BAK), povidone-iodine (PI), and ionic liquids (ILs) consisting of a 1:1 mixture of choline and undecanoic acid, were tested. Toxicity was assayed in vitro on cultures of human corneal epithelial cells, subjected to Trypan Blue staining. Adhesion and tissue invasion experiments were also carried out, with or without γ-irradiation, and by analysis with fluorescent microscopy.
(§1) In Vitro Time Kill Tests. Microtiter time kill tests were carried out in vitro according to the published CLSI methods (M27-A2).^22

[4] = tested on: F. solani (ATCC MYA-3636); assay: In vitro time kill test, filamentous fungi; assay type: cell-based, Fusarium solani; details: for Ratio fungicidal activity/cytotoxicity: FIG. 3, # of log10 reduction / fold-change in Trypan Blue staining vs PBS (HCLE), 1 min contact, F. solani
Procedure: as §1
(§2) ii) Filamentous fungi: The antibiotic solutions, at either full or 1/10 strength, and antiseptics were inoculated with approximately 2×10^5-2×10^6 conidia/mL of F. solani or A. fumigatus in RPMI broth (buffered with MOPS at pH 7.0; Mediatech; Manassas, Va.) for 0-15 min. Conidia were collected by flooding the agar plates with 10 mL of sterile 1×PBS and 0.1% Tween® 20 (Sigma Aldrich; St Louis, Mo.). The solution was transferred to a sterile conical tube, and particles were allowed to settle for 10 min. The resulting supernatant was transferred to a new sterile conical tube and centrifuged at 3,000×g for 5 min. The supernatant was discarded, the remaining pellet was re-suspended in RPMI broth (buffered with MOPS at pH 7.0), and the OD600 was adjusted to 1.0. In the final test solutions, at each time point the inoculum was diluted 1:10 and neutralized in Dey-Engley neutralizing broth (Sigma-Aldrich; St Louis, Mo.). Neutralized cultures were then serially diluted and plated on Sabouraud dextrose agar (two serial 1:10 dilutions, 0.1 mL each) in technical duplicate. Viable conidia were counted and recorded following aerobic incubation for 48 hrs (or as soon as growth was visible) at 25-35° C.
(§3) To investigate the fungicidal activity of various antibiotics and antimicrobials, the reduction in fungal load after short contact times (0-15 min, FIGS. 2-3), to account for the effect of rapid dilution by the tear film, as occurs in patients after topical instillation, was measured.^23 The detection limit for time kill tests was approximately 100 CFU/mL for C. albicans, and 1 CFU/mL for F. solani and A. fumigatus (corresponding to a ≥3 log difference from the starting inoculum). 20-300 cells were considered a reliable counting range per dilution, and values were averaged when more than one dilution in the same plate were within this range.

[5] = tested on: human corneal-limbal epithelial cells (HCLE); assay type: cell-based
Procedure: In Vitro Toxicity Tests. Trypan Blue assays for toxicity of various antimicrobial agents were conducted using human corneal cells. Telomerase-immortalized human corneal-limbal epithelial cells (HCLE) were thawed at 37° C. and quickly transferred to a sterile T75 cell culture flask. Cells were grown in keratinocyte serum-free medium (KSFM; Gibco™; Thermofisher Scientific; Waltham, Mass.) supplemented with bovine pituitary extract (25 μg/mL), epidermal growth factor (0.2 ng/mL), calcium chloride (0.4 mM CaCl2[…]2H2O; Sigma-Aldrich; St Louis, Mo.), and 1× penicillin/streptomycin, at 37° C. with 5% CO2. Once cells were confluent, they were passaged following trypsinization in 12- or 24-well plates. After incubation with Trypsin-EDTA (0.05%, Gibco™; Thermofisher Scientific; Waltham, Mass.) for 5-10 min at 37° C. with 5% CO2, the reaction was stopped with an equivalent volume of neutralizing medium (Dulbecco's Modified Eagle Medium/Nutrient Mixture F-12, DMEM/F-12, with HEPES and 10% newborn calf serum), centrifuged at 5,000×g for 5 min, and re-suspended in supplemented KSFM. Experiments were performed using cells from passages 31 to 36. Once cells reached confluency, they were gently washed twice with DMEM/F-12 (Gibco™; Thermofisher Scientific; Waltham, Mass.) and incubated with an antimicrobial agent for 1 min (n=2 wells per group). Controls included 1×PBS (diluent) and 1% TX-100 (cell permeabilizer). After exposure to various agents, the cells were washed three times with DMEM/F-12, incubated with 0.2% Trypan Blue for 5 min, and washed again three times with DMEM/F-12. The remaining media was aspirated and replaced with 1×PBS for imaging. Macro-images of the culture plate were taken with a smartphone camera (iPhone 7; Apple Inc.; Cupertino, Calif.), and 10× images were taken with an inverted microscope (Eclipse TS100; Nikon; Tokyo, Japan) attached to a digital camera (SPOT Insight Fire Wire; Diagnostic Instruments Inc.; Sterling Heights, Mich.). 3-6 images/well were obtained in clockwise direction from areas immediately adjacent to the center of the well, and without overlapping areas. Images were quantified in ImageJ Fiji software to determine the amount of cell uptake of Trypan Blue. Macros were created from the Color Threshoulder plugin (G. Landini) to batch process the images after color matching in Photoshop to reference images per treatment group. % Area of Trypan Blue staining per image was calculated as follows: (area of blue/area of all)×100%.

[6] = tested on: A. fumigatus (ATCC MYA-3626); assay: In vitro time kill test, filamentous fungi; assay type: cell-based, Aspergillus fumigatus; details: for Ratio fungicidal activity/cytotoxicity: FIG. 3, # of log10 reduction / fold-change in Trypan Blue staining vs PBS (HCLE), 1 min contact, A. fumigatus
Procedure: as §1, §2, §3

[7] = 1:1 IL at 10 mM in 1×PBS
C. albicans (ATCC 24433) = assay: In vitro time kill test, yeast; assay type: cell-based, Candida albicans; details: for Ratio fungicidal activity/cytotoxicity: FIG. 3, # of log10 reduction / fold-change in Trypan Blue staining vs PBS (HCLE), 1 min contact, C. albicans
Procedure: as §1
The inoculum was prepared by adjustment of the optical density at 600 nm (OD600) to 1.0 (corresponding to approximately 1×10^6 CFU/mL), and dilution by 1:10 in the final solution. To confirm the starting inoculum size, yeasts were plated […] and colonies counted after growth for 24 hrs at 37° C. The test solutions were neutralized at each time point by ten-fold dilution in Dey-Engley neutralizing broth (Sigma-Aldrich; St Louis, Mo.), and serially track diluted (PMID: 9343684) on Sabouraud dextrose agar (six serial 1:10 dilutions, 0.01 mL each) in technical triplicate. Colonies were counted and recorded following aerobic incubation for 24 hrs at 37° C.
as §3

In the case of `OCl` [hypochlorous acid], the “Fungicidal activity (words)” value [1] is listed as “rapid fungicidal and sporicidal activity within one minute of exposure time”, the “Fungicidal activity (words)” value ([1]; listed as Hypochlorous acid) is listed as “highly effective against fungi” and the “Tolerability / ocular safety (words)” value [2] is listed as “well tolerated”. For the same molecule, the “Tolerability / ocular safety (words)” value ([2]; listed as Hypochlorous acid) was “easily tolerated”.
In the case of “Choline undecanoate (1:1) [choline-undecanoate IL]”, the “Efficacy/toxicity ratio, overall rank” value ([3]; fungicidal activity vs HCLE cytotoxicity, species not resolved) is reported as “performed even better”, the “Antifungal / fungicidal activity in vitro” value ([3]; species not resolved, agents at eye-drop or stated concentration) is reported as “effective” and the “Contact time within which in vitro fungicidal activity was exhibited” value ([3]; species-, contact time- and concentration-dependent) is reported as 1 to 15 min. The “Reduction in viable F. solani” value ([4]; 10 mM, within 1 min) was 1-4 log, the “Reduction in viable conidia” value ([4]; FIG. 2C, within 1 min of contact, Polytrim full strength, PI 0.5%, BAK 40 µg/mL, #3-IL 10 mM) was 2 log10 and the Ratio fungicidal activity/cytotoxicity [4] was greater than 1. The Ratio fungicidal activity/cytotoxicity ([4]; listed as novel IL) was “highest ratios”, the “Trypan Blue staining (% stained area per image) compared to control treatment TX-100 (1%)” value ([5]; FIG. 2A, confluent HCLE monolayers, 1 min of contact, BAK 40 µg/mL, PI 0.5%, #3-IL 10 mM) was “significantly lower amount of staining” and the “Cytotoxicity / toxicity” value ([5]; HCLE cells, post-exposure Trypan blue staining) was “virtually non-toxic”. The “Reduction in viable A. fumigatus” value ([6]; 10 mM, within 1 min) was 1-4 log, the Ratio fungicidal activity/cytotoxicity [6] was greater than 1 and the Ratio fungicidal activity/cytotoxicity ([6]; listed as novel IL) was “highest ratios”. The Light tolerance [7] was “tolerant of light exposure”, the pH [7] was 7.2±0.2 and the Stability ([7]; room temperature) was “stable at room temperature for months”. The “Reduction in viable C. albicans” value (C. albicans (ATCC 24433); 10 mM, within 1 min) was 1-4 log, the Ratio fungicidal activity/cytotoxicity (C. albicans (ATCC 24433)) was greater than 1 and the Ratio fungicidal activity/cytotoxicity (C. albicans (ATCC 24433); listed as novel IL) was “highest ratios”.
